These results are taken from doi:10.1101/2025.07.02.662867v1 (bioRxiv, 2025).

Data set [1] can be described thus: 24-hour IV pharmacokinetic study in T2D rat model. Set-up: species or system STZ/NA diabetic). The following applies: male, Sprague Dawley, in vivo.
Data set [2] has as its system type 2-like diabetic male rats. Description: Blood glucose and body weight over 6 weeks in diabetic rats. It counts as in vivo, rat (male Sprague Dawley, STZ/NA diabetic). The following applies: hydrogel vs daily bolus.
For data set [3] the following is noted: typical dose of 0.5 to 1 mg; cited from earlier work.

Take `CC[C@H](C)[C@H](NC(=O)[C@H](CC(C)C)NC(=O)[C@H](Cc1c[nH]c2ccccc12)NC(=O)[C@H](CCC(N)=O)NC(=O)[C@@H](NC(=O)[C@H](Cc1ccccc1)NC(=O)[C@H](C)NC(=O)[C@H](CCCCNC(=O)COCCOCCNC(=O)COCCOCCNC(=O)CC[C@H](NC(=O)CCCCCCCCCCCCCCCCCCC(=O)O)C(=O)O)NC(=O)[C@H](CCC(N)=O)NC(=O)[C@H](C)NC(=O)[C@@H](NC(=O)[C@H](CCCCN)NC(=O)[C@H](CC(=O)O)NC(=O)[C@H](CC(C)C)NC(=O)C(C)(C)NC(=O)[C@@H](NC(=O)[C@H](CO)NC(=O)[C@H](Cc1ccc(O)cc1)NC(=O)[C@H](CC(=O)O)NC(=O)[C@H](CO)NC(=O)[C@@H](NC(=O)[C@H](Cc1ccccc1)NC(=O)[C@@H](NC(=O)CNC(=O)[C@H](CCC(=O)O)NC(=O)C(C)(C)NC(=O)[C@@H](N)Cc1ccc(O)cc1)[C@@H](C)O)[C@@H](C)O)[C@@H](C)CC)[C@@H](C)CC)C(C)C)C(=O)N[C@@H](C)C(=O)NCC(=O)NCC(=O)N1CCC[C@H]1C(=O)N[C@@H](CO)C(=O)N[C@@H](CO)C(=O)NCC(=O)N[C@@H](C)C(=O)N1CCC[C@H]1C(=O)N1CCC[C@H]1C(=O)N1CCC[C@H]1C(=O)N[C@@H](CO)C(N)=O` [TZP, tirzepatide]: the half-life in data set [1] is 3.87 ± 0.63 h. Besides, in data set [2], the body weight outcome is “noticeable weight loss in some animals”.
For the compound `CC[C@H](C)[C@H](NC(=O)[C@H](Cc1ccccc1)NC(=O)[C@H](CCC(=O)O)NC(=O)[C@H](CCCCNC(=O)COCCOCCNC(=O)COCCOCCNC(=O)CC[C@H](NC(=O)CCCCCCCCCCCCCCCCC(=O)O)C(=O)O)NC(=O)[C@H](C)NC(=O)[C@H](C)NC(=O)[C@H](CCC(N)=O)NC(=O)CNC(=O)[C@H](CCC(=O)O)NC(=O)[C@H](CC(C)C)NC(=O)[C@H](Cc1ccc(O)cc1)NC(=O)[C@H](CO)NC(=O)[C@H](CO)NC(=O)[C@@H](NC(=O)[C@H](CC(=O)O)NC(=O)[C@H](CO)NC(=O)[C@@H](NC(=O)[C@H](Cc1ccccc1)NC(=O)[C@@H](NC(=O)CNC(=O)[C@H](CCC(=O)O)NC(=O)C(C)(C)NC(=O)[C@@H](N)Cc1cnc[nH]1)[C@@H](C)O)[C@@H](C)O)C(C)C)C(=O)N[C@@H](C)C(=O)N[C@@H](Cc1c[nH]c2ccccc12)C(=O)N[C@@H](CC(C)C)C(=O)N[C@H](C(=O)N[C@@H](CCCNC(=N)N)C(=O)NCC(=O)N[C@@H](CCCNC(=N)N)C(=O)NCC(=O)O)C(C)C` [Sema, semaglutide], the half-life in humans in data set [3] is 170 h.

By half-life is commonly meant how long it takes for the measured level to halve.
